# Measurements from patent US20070128217A1 (priority 2003, published 2007).
# Columns and labels:
# [1] = test system: rabbit serum obtained by immunizing a rabbit with the SARS-CoV strain Frankfurt 1; type: binding; set-up: Binding of a rabbit serum to linear peptides / Binding of a rabbit serum to looped peptides / Rabbit serum linear peptides / Rabbit serum looped peptides / Binding of a rabbit serum to linear peptides of protein N of SARS-CoV Urbani (Rabbit serum linear peptides) / Binding of a rabbit serum to looped/cyclic peptides of protein N of SARS-CoV Urbani (Rabbit serum looped peptides): unit not given here
# [2] = test system: recombinant human anti-SARS-CoV antibody 03-018; type: binding; set-up: Binding of antibody 03-018 to linear peptides of the N protein of SARS-CoV Urbani / Binding of antibody 03-018 to looped/cyclic peptides of the N protein of SARS-CoV Urbani: unit not given here
# [3] = test system: antibodies in sera from SARS patients (sera 1a, 1b, 2, 6, 37, 62, London, SARS-yellow, SARS-green); type: binding, human; set-up: Binding of serum 6 to linear peptides of protein X1 of SARS-CoV Urbani / Binding of serum 37 to linear peptides of protein X1 of SARS-CoV Urbani / Binding of serum 6 to looped/cyclic peptide (PEPSCAN-ELISA) / Binding of serum 37 to looped/cyclic peptide (PEPSCAN-ELISA) / Binding of serum 37 to looped/cyclic peptides of protein X1 of SARS-CoV Urbani / Binding of serum 6 to linear peptides of protein X2 / Binding of serum 37 to linear peptides of protein X2 / Binding of serum 37 to looped/cyclic peptides of protein X2 of SARS-CoV Urbani / Binding of serum 6 to linear peptides of protein M of SARS-CoV Urbani / Binding of serum 37 to linear peptides of protein M of SARS-CoV Urbani / Binding of serum 6 to looped/cyclic peptides of protein M of SARS-CoV Urbani / Binding of serum 37 to looped/cyclic peptides of protein M of SARS-CoV Urbani / Binding of serum 6 to linear peptides of protein X3 of SARS-CoV Urbani / Binding of serum 37 to linear peptides of protein X3 of SARS-CoV Urbani / Binding of serum 37 to looped/cyclic peptides of protein X3 of SARS-CoV Urbani / Binding of serum 6 to linear peptides of protein X4 of SARS-CoV Urbani / Binding of serum 37 to linear peptides of protein X4 of SARS-CoV Urbani / Binding of serum 37 to looped/cyclic peptides of protein X4 of SARS-CoV Urbani / Binding of serum 6 to linear peptides of protein X5 of SARS-CoV Urbani / Binding of serum 37 to linear peptides of protein X5 of SARS-CoV Urbani / Binding of serum 37 to looped/cyclic peptides of protein X5 of SARS-CoV Urbani / Binding of serum 6 to linear peptides of protein N of SARS-CoV Urbani / Binding of serum 37 to linear peptides of protein N of SARS-CoV Urbani / Binding of serum 6 to linear peptide (PEPSCAN-ELISA) / Binding of serum 1a to looped/cyclic peptides of protein N of SARS-CoV Urbani / Binding of serum 1b to looped/cyclic peptides of protein N of SARS-CoV Urbani / Binding of serum 2 to looped/cyclic peptides of protein N of SARS-CoV Urbani / Binding of serum 6 to looped/cyclic peptides of protein N of SARS-CoV Urbani / Binding of serum 37 to looped/cyclic peptides of protein N of SARS-CoV Urbani / Binding of serum 62 to looped/cyclic peptides of protein N of SARS-CoV Urbani / Binding of serum London to looped/cyclic peptides of protein N of SARS-CoV Urbani / Binding of serum SARS-green to looped/cyclic peptides of protein N of SARS-CoV Urbani: unit not given here
# [4] = test system: control sera (pooled serum of ten healthy LUMC hospital workers; commercial negative donor pooled serum from the Dutch bloodbank); type: binding, human; set-up: Binding of Control serum LUMC to linear peptides / Binding of Control serum Blood-bank to linear peptides / Binding of Control serum LUMC to looped peptides / Binding of Control Serum Blood-Bank to Looped peptides / Binding of Control serum LUMC to linear peptides of the protein M of SARS-CoV Urbani / Binding of Control serum Blood-bank to linear peptides of the protein M of SARS-CoV Urbani / Binding of Control serum LUMC to looped peptides of the protein M of SARS-CoV Urbani / Binding of Control Serum Blood-Bank to Looped peptides of the protein M of SARS-CoV Urbani: unit not given here
Sequence,Binding of antibody 03-018 to linear peptides of the N protein of SARS-CoV Urbani [2],Binding of antibody 03-018 to looped/cyclic peptides of the N protein of SARS-CoV Urbani [2],Binding of serum 1a to linear peptides of protein N of SARS-CoV Urbani [3],Binding of serum 1a to looped/cyclic peptides of protein N of SARS-CoV Urbani [3],Binding of serum 1b to linear peptides of protein N of SARS-CoV Urbani [3],Binding of serum 1b to looped/cyclic peptides of protein N of SARS-CoV Urbani [3],Binding of serum 2 to linear peptides of protein N of SARS-CoV Urbani [3],Binding of serum 2 to looped/cyclic peptides of protein N of SARS-CoV Urbani [3],Binding of serum 6 to linear peptides of protein N of SARS-CoV Urbani [3],Binding of serum 6 to looped/cyclic peptides of protein N of SARS-CoV Urbani [3],Binding of serum 37 to linear peptides of protein N of SARS-CoV Urbani [3],Binding of serum 37 to looped/cyclic peptides of protein N of SARS-CoV Urbani [3],Binding of serum 62 to linear peptides of protein N of SARS-CoV Urbani [3],Binding of serum 62 to looped/cyclic peptides of protein N of SARS-CoV Urbani [3],Binding of serum London to linear peptides of protein N of SARS-CoV Urbani [3],Binding of serum London to looped/cyclic peptides of protein N of SARS-CoV Urbani [3],Binding of serum SARS-green to linear peptides of protein N of SARS-CoV Urbani [3],Binding of serum SARS-green to looped/cyclic peptides of protein N of SARS-CoV Urbani [3],Binding of serum SARS-yellow to linear peptides of protein N of SARS-CoV Urbani [3],Binding of serum SARS-yellow to looped/cyclic peptides of protein N of SARS-CoV Urbani [3],other results
AYKTFPPTEPKKDKK,0.1,0.1,0.2,0.1,0.1,0.1,0.3,0.2,0.2,0.0,0.7,0.2,0.8,0.1,0.6,0.1,0.3,0.0,0.7,0.0,Binding of a rabbit serum to linear peptides of protein N of SARS-CoV Urbani (Rabbit serum linear peptides) [1]: 0.2; Binding of a rabbit serum to looped/cyclic peptides of protein N of SARS-CoV Urbani (Rabbit serum looped peptides) [1]: 0.0; Control Serum Blood-Bank Looped peptides [4]: 0.3; Control serum Blood-bank linear peptides [4]: 0.7; Control serum LUMC linear peptides [4]: 0.6; Control serum LUMC looped peptides [4]: 0.1
DAYKTFPPTEPKKDK,0.1,0.2,0.3,0.2,0.2,0.1,0.3,0.2,0.3,0.1,0.8,0.3,1.1,0.2,0.6,0.2,0.4,0.0,0.7,0.1,Binding of a rabbit serum to linear peptides of protein N of SARS-CoV Urbani (Rabbit serum linear peptides) [1]: 0.1; Binding of a rabbit serum to looped/cyclic peptides of protein N of SARS-CoV Urbani (Rabbit serum looped peptides) [1]: 0.1; Control Serum Blood-Bank Looped peptides [4]: 0.2; Control serum Blood-bank linear peptides [4]: 0.8; Control serum LUMC linear peptides [4]: 0.6; Control serum LUMC looped peptides [4]: 0.2
DDQIGYYRRATRRVR,0.1,0.3,0.3,0.4,0.1,0.2,0.3,0.5,0.3,0.4,0.7,0.9,0.9,0.7,0.7,0.5,0.6,0.4,0.6,0.5,Recognition of the peptide by the rabbit serum [1]: recognized; Binding of Control Serum Blood-Bank to Looped peptides [4]: 0.8; Binding of Control serum Blood-bank to linear peptides [4]: 1.0; Binding of Control serum LUMC to linear peptides [4]: 1.0; Binding of Control serum LUMC to looped peptides [4]: 0.8
DFSRQLQNSMSGASA,0.1,0.2,0.2,0.3,0.1,0.1,0.2,0.4,0.2,0.2,0.7,0.4,0.6,0.2,0.5,0.3,0.3,0.4,0.5,0.2,Binding of a rabbit serum to linear peptides of protein N of SARS-CoV Urbani (Rabbit serum linear peptides) [1]: 0.5; Binding of a rabbit serum to looped/cyclic peptides of protein N of SARS-CoV Urbani (Rabbit serum looped peptides) [1]: 0.6; Control Serum Blood-Bank Looped peptides [4]: 0.5; Control serum Blood-bank linear peptides [4]: 0.6; Control serum LUMC linear peptides [4]: 0.6; Control serum LUMC looped peptides [4]: 0.4
